Laboratory results taken from patent publication US11241442B2, “Methods of use for TRP channel antagonist-based combination cancer therapies” (President and Fellows of Harvard College, priority 2017, dated 2022).

Experiments:
Assay type in all cases: cell-based
[1] = molecular target: T1, TRPA1 (Homo sapiens, UniProt O75762); experiment: [Ca2+]i by fura-2 in HCC1569 spheroids; conditions: AP-18, 300 nM A-967079 or 5 mM NAC
T1 construct: endogenous in cells; host or cells: HCC1569 breast cancer cells (2D culture or 3D spheroids; shGFP or shTRPA1 transduced)
Description: (§1) For the measurement of [Ca^2+]i levels in cells cultured in 2D or 3D (in Matrigel), cells were stained with 3.5 μM fura-2-AM (Life Technology) in the presence of 2.5 mM probenecid (Sigma) and 0.02% Pluronic F-127 (Sigma) for 45 min at 37° C. The fura-2 fluorescence was measured in HBS solution containing 1.25 mM probenecid at 37° C. Fluorescence images of the cells were acquired through the Eclipse Ti-E microscope with ORCA-R2 cooled CCD camera and analyzed with Metafluor. The 340:380-nm ratio images were obtained on a pixel-by-pixel basis and were converted to Ca^2+ concentrations by in vivo calibration using 5 μM ionomycin as described previously (Nishida et al., Biochem. Biophys. Res. Commun., 262:350-354, 1999). 3D images are shown as one section from midstructure. For the measurement of [Ca^2+]i levels in cells cultured in suspension, cell clumps were dissociated with trypsin and [Ca^2+]i levels were determined by using Fluo-4 NW Calcium Assay Kit (Molecular Probes). Cells were stained with Fluo-4 according to the manufacturer's instructions and subjected to flow cytometric analysis (FACSCalibur) using HBS as sheath fluid. [Ca^2+]i levels determined by flow cytometry are reported as mean fluorescence intensity expressed in arbitrary units. Time courses of [Ca^2+]i rises in 2D culture are representative of three independent experiments and averaged Δ[Ca^2+]i represents mean±SEM from the sum of three independent experiments. Fura-2 ratio images in 3D culture are representative of two independent experiments and averaged [Ca^2+]i in 3D culture represents mean±SEM from the sum of two independent experiments.

[2] = test system: NSCLC cells; experiment: H2O2- and carboplatin-induced cytotoxicity in NSCLC cells; conditions: TRPA1 expression-dependent
Description: (§2) For the measurements of live cell number and cell death under treatment with H2O2, diamide, or chemotherapies, cells were cultured on 96-well plates in the presence or absence of these drugs for indicated times and stained with 5 μM bisBenzimide H 33342 trihydrochloride (Hoechst; Sigma) and 5 μM propidium iodide (PI; Sigma) for 1 h at 37° C. Hoechst- and/or PI-positive cells were counted using a laser scanning cytometer, Acumen Cellista (TTPLabTech). Apoptotic cells induced by H2O2 treatment were measured by staining with Annexin V-Alexa Fluor® 488 conjugate (Life Technologies) and PI in Ca^2+-containing solution (10 mM HEPES pH 7.4, 140 mM NaCl; 2.5 mM CaCl2), followed by flow cytometric measurement of fluorescence using a FACSCalibur. Flow cytometry plots are representative of three independent experiments. […] Viable cells were counted using the Countless Automated Cell Counters (Thermo Fisher Scientific). […] Hoechst- and/or PI-positive areas were measured using Acumen Cellista. Apoptotic cells induced by detachment were measured by staining with 5 μM Hoechst and 5 μM of CellEvent™ Caspase-3/7 Green Detection Reagent (Thermo Fisher Scientific) for 1 h at 37° C. without enzymatic dissociation of cell clumps. Hoechst- and/or CellEvent™ Caspase-3/7 Green Detection Reagent-positive areas were measured using Acumen Cellista. […]

[3] = test system: MCF-10A acini; experiment: [H2O2]i by Hyper-2 in MCF-10A 3D acini
Description: For the measurement of [H2O2]i levels in MCF-10A acini and HCC1569 spheroids, cells were transduced with a lentiviral vector encoding Hyper-2 or Hyper-2 (C199S). The Hyper-2 fluorescence was measured at 37° C. in HEPES-buffered saline (HBS) containing the following (in mM): 150 NaCl, 6 KCl, 1.2 MgSO4, 2 CaCl2, 11.5 glucose, and 25 HEPES (pH adjusted to 7.4 with NaOH). Fluorescence images of the cells were acquired through the Eclipse Ti-E microscope (Nikon) with ORCA-R2 cooled CCD camera (Hamamatsu Photonics) and analyzed with Metafluor image acquisition software (Molecular Devices). The 488:405-nm ratio images were obtained on a pixel-by-pixel basis. 3D images are shown as one section from midstructure. For the measurement of [H2O2]i levels in MCF-10A cells cultured in suspension, cell clumps were dissociated with trypsin and stained with 10 μM peroxy green-1 for 30 min at 37° C. Cells were then subjected to flow cytometric analysis (FACSCalibur; BD Biosciences). ROS levels determined by flow cytometry are reported as mean fluorescence intensity expressed in arbitrary units. Hyper-2 ratio images are representative from two independent experiments and averaged Hyper-2 ratio represents mean±SD from the sum of two independent experiments.

[4] = test system: MPNST cells; experiment: H2O2- and carboplatin-induced cytotoxicity in MPNST cells; conditions: TRPA1 expression-dependent
Description: as §2

[5] = molecular target: T1, TRPA1; experiment: AITC-evoked [Ca2+]i rises in TRPA1-enriched MPNST cells; conditions: 10 μM AP-18, 30 μM AITC
Description: as §1, with “Time courses of [Ca^2+]i rises in 2D culture are representative of three independent experiments and averaged Δ[Ca^2+]i represents mean±SEM from the sum of three independent experiments. Fura-2 ratio images in 3D culture are representative of two independent experiments and averaged [Ca^2+]i in 3D culture represents mean±SEM from the sum of two independent experiments.” left out

T1 sequence (O75762 whole entry): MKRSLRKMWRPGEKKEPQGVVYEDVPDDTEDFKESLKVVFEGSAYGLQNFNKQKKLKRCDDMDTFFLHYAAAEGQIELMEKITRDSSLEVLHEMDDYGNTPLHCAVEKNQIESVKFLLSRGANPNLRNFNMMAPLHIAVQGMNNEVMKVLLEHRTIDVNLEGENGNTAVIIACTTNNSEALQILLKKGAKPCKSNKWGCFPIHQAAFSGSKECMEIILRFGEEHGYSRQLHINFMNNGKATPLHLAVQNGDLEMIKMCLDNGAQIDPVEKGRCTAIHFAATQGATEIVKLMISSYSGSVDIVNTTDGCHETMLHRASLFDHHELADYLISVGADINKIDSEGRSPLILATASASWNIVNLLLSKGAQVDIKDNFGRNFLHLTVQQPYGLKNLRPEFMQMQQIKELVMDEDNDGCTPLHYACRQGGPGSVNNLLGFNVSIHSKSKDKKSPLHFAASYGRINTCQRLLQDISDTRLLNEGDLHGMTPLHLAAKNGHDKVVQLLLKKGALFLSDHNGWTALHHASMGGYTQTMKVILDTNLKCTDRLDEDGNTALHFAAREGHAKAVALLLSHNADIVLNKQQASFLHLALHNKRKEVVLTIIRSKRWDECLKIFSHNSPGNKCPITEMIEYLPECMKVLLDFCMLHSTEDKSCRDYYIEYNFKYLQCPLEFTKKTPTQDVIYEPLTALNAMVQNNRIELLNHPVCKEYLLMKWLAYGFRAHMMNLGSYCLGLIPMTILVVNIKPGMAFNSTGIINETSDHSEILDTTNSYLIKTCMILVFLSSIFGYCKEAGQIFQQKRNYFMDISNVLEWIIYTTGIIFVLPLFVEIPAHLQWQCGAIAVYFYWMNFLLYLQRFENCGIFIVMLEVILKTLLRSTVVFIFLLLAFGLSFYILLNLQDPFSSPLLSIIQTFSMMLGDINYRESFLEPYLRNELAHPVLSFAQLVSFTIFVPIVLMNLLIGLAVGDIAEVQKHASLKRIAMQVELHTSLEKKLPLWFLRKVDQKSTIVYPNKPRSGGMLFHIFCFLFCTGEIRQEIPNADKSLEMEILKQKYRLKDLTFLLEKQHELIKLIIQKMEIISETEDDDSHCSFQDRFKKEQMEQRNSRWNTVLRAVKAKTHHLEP

## AP-18
[1]
  elevated [Ca2+]i of inner cells of spheroids: suppressed
[2]; 10 μM AP-18, carboplatin 72 h
  sensitization to carboplatin-induced cytotoxicity: sensitized
[2]
  sensitization to H2O2-induced cytotoxicity: sensitized
[3]
  increase in [H2O2]i (Hyper-2) in inner ECM-deprived cells: unaffected
[4]; 10 μM AP-18, carboplatin 72 h
  sensitization to carboplatin-induced cytotoxicity: sensitized
[4]
  sensitization to H2O2-induced cytotoxicity: sensitized
[5]
  inhibition of AITC-induced [Ca2+]i rises: abolished
